Source: US8754038B2, “Template-fixed peptidomimetics with CCR10 antagonistic activity” (priority 2009, dated 2014)
Numbered stars: 1 amine (or outer) side, 2 acyl side, 3 side chain; on linkers, the order of the positions; unused ones are H or OH. Square brackets hold non-standard residues; d marks the D form. Side chains are listed from the residue outwards. Peptide text beside a SMILES is read from it. * marks the point of attachment. X1 = O=C([C@@H]1C[C@@H](Cc2ccc(Br)cc2)CN1[*:1])[*:2]; Phe(4-CF3) = N[C@@H](Cc1ccc(C(F)(F)F)cc1)C(=O)O; X7 = O=C([C@H](CCNCc1c[nH]cn1)N[*:1])[*:2]; Oic = O=C(O)[C@@H]1C[C@@H]2CCCC[C@@H]2N1; MeOCH2CH2OCH2CO = COCCOCC(=O)*; N(Me)CH2CH2OMe = COCCN(C)*; Thz = O=C(O)[C@@H]1CSCN1; Ac5c = NC1(C(=O)O)CCCC1; Dab = NCC[C@H](N)C(=O)O; X8 = Cn1cncc1CCC(=O)*; CO = O=C([*:1])[*:2]; NHCH2CH2OMe = COCCN*; Ms = CS(=O)(=O)*

Tests used:
human CCR10 [1] = target: T1, human CCR10 (Homo sapiens, UniProt P46092); test: Calcium flux assay (CCR10 antagonism, CCL27 as agonist); format: cell-based; details: CCR10 transfected 300-19 murine pre-B cells; CCL27 30 nM
T1 construct: expressed in transfected cells
T1 sequence (P46092 1-362): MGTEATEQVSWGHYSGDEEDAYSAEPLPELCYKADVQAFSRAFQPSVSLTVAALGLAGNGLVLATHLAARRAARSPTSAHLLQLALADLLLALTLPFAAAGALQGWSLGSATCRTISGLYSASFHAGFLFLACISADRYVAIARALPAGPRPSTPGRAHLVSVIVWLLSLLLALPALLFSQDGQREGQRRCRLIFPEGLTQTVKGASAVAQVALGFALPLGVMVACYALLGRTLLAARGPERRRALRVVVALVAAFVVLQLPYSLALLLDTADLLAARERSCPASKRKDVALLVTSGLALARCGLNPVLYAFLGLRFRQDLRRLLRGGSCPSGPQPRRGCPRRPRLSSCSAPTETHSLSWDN
Method: (§1) Lyophilized peptides were weighed on a Microbalance (Mettler MX5) and dissolved in aqueous 90% DMSO to a final concentration of 10 mM unless otherwise stated. Stock solutions were kept at +4° C., and protected from light.
(§2) Peptides were assayed for CCR10 antagonism in a calcium flux assay and in a chemotaxis assay using a mouse pre-B cell line 300-19 stably transfected with human CCR10, and with human CCL27 as agonist.
The calcium flux release was assessed using CCR10 transfected 300-19 murine pre-B cells. These cells were labeled as a batch with Calcium4 Reagent (Molecular Devices, Sunnyvale, Calif.) in HBSS buffer for 60 min.
After dispensing 8×10^4 cells in each well of a 384-well black plate, a concentrated solution of the β-hairpin peptidomimetics of this invention in HBSS+0.1% BSA+0.1% DMSO (final concentration) was added to the cells. The entire plate was centrifuged and placed in a Flexstation II (Molecular Devices) automated plate reader. After reading a 20 s baseline, the Flexstation dispensed CCL27 (RnD systems) at a final concentration of 30 nM in HBSS+0.1% BSA onto the cells and calcium flux was measured for an additional 70 s.
Alternatively a FIipR384 (Molecular Devices) was used for read out of the 384-well plates. In this case about 8×10^4 cells were placed in each well, centrifuged, placed in the FlipR and after 5 s of baseline reading, the β-hairpin peptidomimetics in HBSS+0.1% BSA+0.1% DMSO (final concentration) were added. After an incubation time of 5 min, the CCL27 solution was added to the mixture and the calcium flux was measured for 200 s.
The maximum signal was determined from control wells without inhibitor. Percentage of inhibition was calculated from a range of compound concentrations, which were subsequently used to calculate IC50 values (Softmax Pro, Molecular Devices). All steps were carried out at room temperature.

human CCR10 [2] = target: T1, human CCR10; test: Chemotaxis assay (CCR10-transfected 300-19 cells, CCL27 gradient); format: cell-based; details: CCR10-transfected 300-19 murine pre-B cells; 30 nM CCL27 gradient
Method: as §1, §2
The chemotactic response of CCR10-transfected 300-19 murine pre-B cells to a gradient of CCL27 (CTACK) was measured using disposable Transwell® assay plates from Costar (5 μm pore size) according to the protocol of the manufacturer. Briefly, cells were grown under sterile conditions at 37° C. with 5% CO2 in flasks containing RPMI+5% FCS, glutamine, penicillin/streptomycin (all media components were from Life Technologies) and the appropriate selection antibiotics (Puromycin, G418 or Tetracycline). For the assay, cells were pelleted by centrifugation, washed once in Dulbecco's phosphate buffered saline (DPBS), and resuspended to give 1×10^6 cells/ml in RPMI+0.5% bovine serum albumin (BSA). 100 μl of cell suspension was applied to the top of the assay filter. The β-hairpin peptidomimetics, diluted in the same assay medium, were added to both top and bottom chambers. The cells were allowed to migrate for 4-6 hours at 37° C. into the bottom chamber of the assay plate containing 30 nM of CCL27 (RnD systems). Migrated cells were counted using a FACS cytometer (Cytomics FC500, Beckman Coulter). Data normalization was performed using the number of any cells that had migrated in the absence of the β-hairpin peptidomimetic and the number of cells that have randomly migrated in absence of CCL27 [these values were taken as 100% (no inhibitory activity) and 0%, respectively]. From a range of compound concentrations IC50 were determined using Prism5 (GraphPad software).

Compound	IC50 (human CCR10 [1]) [nM]	IC50 (human CCR10 [2]) [nM]
NCC[C@H](N)C(=O)NCC[C@@H]1NC(=O)[C@H](Cc2c[nH]c3ccccc23)NC(=O)C2(CCCC2)NC(=O)[C@H](Cc2c[nH]c3ccccc23)NC(=O)[C@@H]2C[C@@H]3CCCC[C@@H]3N2C(=O)[C@H]2CCCN2C1=O [Ex. 71, cyclo(-Trp-Cyp-Trp-Dab(Dab)-^DPro-Oic-)] (cyclo([Ac5c]W[Dab](Dab)[dP][Oic]W))	567 ± 155	50.2
COCCOCC(=O)NCC[C@@H]1NC(=O)[C@H](Cc2c[nH]c3ccccc23)NC(=O)C2(CCCC2)NC(=O)[C@H](Cc2c[nH]c3ccccc23)NC(=O)[C@@H]2C[C@@H]3CCCC[C@@H]3N2C(=O)[C@H]2CCCN2C1=O [Ex. 72, cyclo(-Trp-Cyp-Trp-Dab(MEMCO)-^DPro-Oic-)] (cyclo([Ac5c]W[Dab](MeOCH2CH2OCH2CO)[dP][Oic]W))	62.8 ± 41.6	11.5
COCCNC(=O)NCC[C@@H]1NC(=O)[C@H](Cc2c[nH]c3ccccc23)NC(=O)C2(CCCC2)NC(=O)[C@H](Cc2c[nH]c3ccccc23)NC(=O)[C@@H]2C[C@@H]3CCCC[C@@H]3N2C(=O)[C@H]2CCCN2C1=O [Ex. 73, cyclo(-Trp-Cyp-Trp-Dab(MeO(CH2)2NHCO)-^DPro-Oic-)] (cyclo([Ac5c]W[Dab]([CO-NHCH2CH2OMe])[dP][Oic]W))	24.2 ± 24.5	5.3
COCCN(C)C(=O)NCC[C@@H]1NC(=O)[C@H](Cc2c[nH]c3ccccc23)NC(=O)C2(CCCC2)NC(=O)[C@H](Cc2c[nH]c3ccccc23)NC(=O)[C@@H]2C[C@@H]3CCCC[C@@H]3N2C(=O)[C@H]2CCCN2C1=O [Ex. 97, cyclo(-Trp-Cyp-Trp-Dab((MeO(CH2)2)(Me)NCO)-^DPro-Oic-)] (cyclo([Ac5c]W[Dab]([CO-N(Me)CH2CH2OMe])[dP][Oic]W))	8.1 ± 9.1	5.6
CS(=O)(=O)NCC[C@@H]1NC(=O)[C@H](Cc2c[nH]c3ccccc23)NC(=O)C2(CCCC2)NC(=O)[C@H](Cc2c[nH]c3ccccc23)NC(=O)[C@@H]2C[C@@H]3CCCC[C@@H]3N2C(=O)[C@H]2CCCN2C1=O [Ex. 100, cyclo(-Trp-Cyp-Trp-Dab(MeSO2)-^DPro-Oic-)] (cyclo([Ac5c]W[Dab](Ms)[dP][Oic]W))	0.2 ± 0.1	3.4
O=C1NC2(CCCC2)C(=O)N[C@@H](Cc2c[nH]c3ccccc23)C(=O)N[C@@H](CCNCc2c[nH]cn2)C(=O)N2CCC[C@@H]2C(=O)N2[C@@H](C[C@@H]3CCCC[C@@H]32)C(=O)N[C@H]1Cc1c[nH]c2ccccc12 [Ex. 106, cyclo(-Trp-Cyp-Trp-Dab(A55)-^DPro-Oic-)] (cyclo([Ac5c]W[X7][dP][Oic]W))	12.2 ± 3.8	4.8
Cn1cncc1CCC(=O)NCC[C@@H]1NC(=O)[C@H](Cc2c[nH]c3ccccc23)NC(=O)C2(CCCC2)NC(=O)[C@H](Cc2ccc(C(F)(F)F)cc2)NC(=O)[C@@H]2C[C@@H]3CCCC[C@@H]3N2C(=O)[C@H]2CCCN2C1=O [Ex. 108, cyclo(-Phe(4CF3)-Cyp-Trp-Dab(A56)-^DPro-Oic-)] (cyclo([Ac5c]W[Dab](X8)[dP][Oic][Phe(4-CF3)]))	34.5 ± 17.3	2.5
NCC[C@@H]1NC(=O)[C@H](Cc2c[nH]c3ccccc23)NC(=O)C2(CCCC2)NC(=O)[C@H](Cc2c[nH]c3ccccc23)NC(=O)[C@@H]2CSCN2C(=O)[C@H]2CCCN2C1=O [compound 6, cyclo(-Trp-Cyp-Trp-Dab-^DPro-Thz-)] (cyclo([Ac5c]W[Dab][dP][Thz]W))	134 ± 73.3	19.6
NCC[C@@H]1NC(=O)[C@H](Cc2c[nH]c3ccccc23)NC(=O)C2(CCCC2)NC(=O)[C@H](Cc2c[nH]c3ccccc23)NC(=O)[C@@H]2C[C@@H](Cc3ccc(Br)cc3)CN2C(=O)[C@H]2CCCN2C1=O [compound 39, cyclo(-Trp-Cyp-Trp-Dab-^DPro-Pro((4R)4BrBn)-)] (cyclo([Ac5c]W[Dab][dP][X1]W))	15.8 ± 10.3	9
